# Data taken from ChEMBL document CHEMBL1201862, “PubChem BioAssay data set” (2004).
# Active and inactive are the calls of the source.
# Legend:
# [1] = Trypanosoma cruzi growth suppression in host cells – NIH3T3 host cells, beta-gal luminescence, confirmation (AID 2044); assay type: functional, cell-based;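 further: intracellular parasites grown in NIH/3T3 mouse fibroblasts as host cells; luminescent beta-galactosidase reporter signal from transgenic T. cruzi replicating inside host cells; inhibitors lower the luminescence signal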
# [2] = NIH3T3 cell viability loss – ATP luminescence, mouse fibroblasts, counter-screen, dose response (AID 2010); assay type: functional, cell-based;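 further: cells exposed to compound for about 90 hours before reading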
# Cytochrome P450 2C9 = Cytochrome P450 2C9 (Homo sapiens, UniProt P11712)
# Cytochrome P450 2C9, sequence (P11712 whole entry): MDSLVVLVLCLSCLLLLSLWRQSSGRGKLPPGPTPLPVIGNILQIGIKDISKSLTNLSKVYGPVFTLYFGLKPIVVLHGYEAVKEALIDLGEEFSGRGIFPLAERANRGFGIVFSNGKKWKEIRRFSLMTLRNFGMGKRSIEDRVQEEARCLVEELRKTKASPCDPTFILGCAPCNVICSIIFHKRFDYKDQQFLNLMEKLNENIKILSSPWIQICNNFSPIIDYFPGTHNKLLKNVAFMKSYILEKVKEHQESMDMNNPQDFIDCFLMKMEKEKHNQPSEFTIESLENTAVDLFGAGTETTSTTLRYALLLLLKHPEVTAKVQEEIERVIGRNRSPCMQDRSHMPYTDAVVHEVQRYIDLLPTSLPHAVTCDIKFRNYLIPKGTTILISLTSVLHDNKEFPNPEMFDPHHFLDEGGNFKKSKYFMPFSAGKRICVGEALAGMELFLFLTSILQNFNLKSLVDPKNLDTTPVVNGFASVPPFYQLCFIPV
# Cytochrome P450 3A4 = Cytochrome P450 3A4 (Homo sapiens, UniProt P08684);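 further: CYP3A4 tested as one member of a cytochrome P450 panel screen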
# Cytochrome P450 3A4, sequence (P08684 whole entry): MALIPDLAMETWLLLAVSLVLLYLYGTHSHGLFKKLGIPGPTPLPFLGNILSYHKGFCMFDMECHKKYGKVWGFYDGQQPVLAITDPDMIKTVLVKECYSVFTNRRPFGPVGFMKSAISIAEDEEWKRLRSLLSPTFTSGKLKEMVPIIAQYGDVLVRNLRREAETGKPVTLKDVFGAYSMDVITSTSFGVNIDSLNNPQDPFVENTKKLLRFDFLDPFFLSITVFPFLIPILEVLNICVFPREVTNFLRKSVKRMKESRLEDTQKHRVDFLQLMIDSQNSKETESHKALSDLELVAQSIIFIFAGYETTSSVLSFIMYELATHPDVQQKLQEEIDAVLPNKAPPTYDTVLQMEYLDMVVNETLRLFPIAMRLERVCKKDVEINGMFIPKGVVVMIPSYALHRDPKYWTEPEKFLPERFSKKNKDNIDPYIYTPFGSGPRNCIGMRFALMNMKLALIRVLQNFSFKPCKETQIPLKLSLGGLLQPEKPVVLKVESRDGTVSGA
# Cytochrome P450 1A2 = target: T1, Cytochrome P450 1A2 (Homo sapiens, UniProt P05177);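 further: PubChem cytochrome P450 panel assay, CYP1A2 panel member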
# T1 sequence (P05177 whole entry): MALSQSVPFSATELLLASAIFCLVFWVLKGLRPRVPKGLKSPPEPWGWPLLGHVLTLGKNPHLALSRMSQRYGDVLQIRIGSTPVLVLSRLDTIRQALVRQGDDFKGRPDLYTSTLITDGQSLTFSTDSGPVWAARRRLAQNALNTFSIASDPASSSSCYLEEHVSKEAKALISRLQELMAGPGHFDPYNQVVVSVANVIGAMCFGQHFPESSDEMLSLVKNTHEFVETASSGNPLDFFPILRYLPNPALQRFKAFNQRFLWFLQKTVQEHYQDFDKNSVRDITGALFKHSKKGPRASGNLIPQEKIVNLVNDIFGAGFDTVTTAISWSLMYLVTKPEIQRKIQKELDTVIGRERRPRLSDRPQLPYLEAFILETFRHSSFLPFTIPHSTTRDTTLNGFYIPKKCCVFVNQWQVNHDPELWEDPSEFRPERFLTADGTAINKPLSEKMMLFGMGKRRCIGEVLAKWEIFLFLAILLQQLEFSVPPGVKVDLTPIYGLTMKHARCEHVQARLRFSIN
# [3] = target: T2, Corticotropin-releasing factor receptor 2/Corticotropin-releasing factor-binding protein (Homo sapiens, UniProt P24387+Q13324); test: activators of CRF receptor 2 with binding protein – uHTS hits, confirmation (AID 602473); assay type: functional; conditions: read-out: EC50_Mean
# T2 sequence (Q13324 whole entry): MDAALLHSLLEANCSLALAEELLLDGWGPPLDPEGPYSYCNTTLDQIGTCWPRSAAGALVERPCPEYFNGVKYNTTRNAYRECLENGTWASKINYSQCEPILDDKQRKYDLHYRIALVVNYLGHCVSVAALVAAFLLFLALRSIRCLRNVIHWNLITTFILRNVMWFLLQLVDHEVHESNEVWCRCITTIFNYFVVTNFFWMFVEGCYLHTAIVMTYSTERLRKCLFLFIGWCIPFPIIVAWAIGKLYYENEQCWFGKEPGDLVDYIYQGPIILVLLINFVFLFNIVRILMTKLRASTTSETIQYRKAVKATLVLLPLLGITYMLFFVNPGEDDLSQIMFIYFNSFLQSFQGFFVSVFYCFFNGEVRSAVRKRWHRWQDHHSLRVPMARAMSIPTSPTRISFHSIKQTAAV
# T2 sequence (P24387 whole entry): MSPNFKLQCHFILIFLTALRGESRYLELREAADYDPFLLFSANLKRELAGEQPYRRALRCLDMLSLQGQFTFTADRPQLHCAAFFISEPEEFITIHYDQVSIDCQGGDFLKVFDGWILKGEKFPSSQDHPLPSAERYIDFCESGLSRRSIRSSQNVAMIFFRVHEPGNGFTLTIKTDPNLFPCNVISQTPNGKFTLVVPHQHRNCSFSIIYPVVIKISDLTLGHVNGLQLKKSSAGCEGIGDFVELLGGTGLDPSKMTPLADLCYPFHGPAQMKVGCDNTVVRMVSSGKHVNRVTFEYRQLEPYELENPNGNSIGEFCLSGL
# [4] = Luminescence Cell-Based Dose Response HTS to Identify Activators of Luciferase Translation or Activity in H4 […] Cells. [Related pubchem assays: 1829 (Project Summary), 1814 (Primary HTS)]; assay type: functional
# H4 = test: Luminescence Cell-Based Dose Response HTS to Identify Activators of 5'UTR Stem-Loop Driven Prion Protein mRNA Translation in H4 Neuroglioblastoma Cells. [Related pubchem assays: 1829 (Project Summary), 1814 (Primary HTS)]; assay type: functional; conditions: Homo sapiens
# cells = assay type: functional
smiles,measurement,setting,value
CSc1cccc(CN2CCCC(CO)(Cc3cccc(Cl)c3)C2)c1 (stereo not given),EC50,[1],0.514 µM (active)
same,EC50,[2],> 30 µM (not active)
O=C(Nc1ccccc1)[C@@]12C[C@@H]1/C(=N/O)c1ccccc1O2,AC50,Cytochrome P450 2C9,20 µM (inconclusive)
O=C(CSc1nc2ccccc2c(=O)n1Cc1ccccc1)NCc1ccco1,AC50,Cytochrome P450 3A4,39.8 µM (inconclusive)
same,AC50,Cytochrome P450 1A2,1.41 µM (inconclusive)
O=C(Nc1ccc(OC(=O)c2cccnc2)cc1)c1cccnc1,AC50,Cytochrome P450 3A4,12.6 µM (inconclusive)
Cc1noc(C)c1C(=O)N1CCC2(CCN(C(=O)NC(C)C)CC2)CC1,AC50,Cytochrome P450 1A2,5.01 µM (inconclusive)
O=C(NC1CC1)c1cccc2c1C(=O)c1ccc(N3CCC(Cc4ccccc4)CC3)cc1S2(=O)=O,EC50,[3],7.05 µM (active)
COc1ccc(-n2c(=O)c(-c3cccs3)nc3cnc(Oc4ccccc4)nc32)cc1,AC50,Cytochrome P450 2C9,12.6 µM (inconclusive)
COc1ccc(-n2c(=O)cnc3cnc(N4CCNCC4)nc32)cc1,AC50,Cytochrome P450 2C9,39.8 µM (inconclusive)
Cc1cccc(-c2nsc(SCC(=O)N3CCCC3)n2)c1,EC50,[4],0.104 µM (active)
same,EC50,H4,0.217 µM (active)
C=C1[C@@H](O)C2C=CC[C@H](C)C(=O)[C@@](C)(O)C=C[C@@H](OC(C)=O)[C@@]23C(=O)N[C@H](Cc2ccccc2)[C@@H]3[C@@H]1C (stereo not given in full),AC50,Cytochrome P450 2C9,31.6 µM (inconclusive)
same,AC50,Cytochrome P450 3A4,15.8 µM (inconclusive)
Cc1ccc(C2=NN(C)c3nc4ccccc4n3C2)cc1,IC50,cells,8.22 µM (active)
COC(=O)[C@@H]1CC[C@H](C)[C@@H](c2ccc(C)cc2)N1C(=O)c1ccc(/C=N\O[C@@H](C)CN2CCCCc3nc(C)c(C)cc32)cc1,AC50,Cytochrome P450 2C9,3.16 µM (inconclusive)
same,AC50,Cytochrome P450 3A4,3.16 µM (inconclusive)
O=C(COc1ccc2ccccc2c1)N/N=C/c1ccccn1,IC50,cells,> 50 µM (active)
CS(=O)(=O)N(CC(=O)Nc1cccc(F)c1)c1cccc([N+](=O)[O-])c1,AC50,Cytochrome P450 3A4,17.8 µM (inconclusive)
O=C(NCc1ccccc1)C12CN(Cc3ccccc3)CC1C(c1cccc([N+](=O)[O-])c1)=NO2 (stereo not given),AC50,Cytochrome P450 1A2,15.8 µM (inconclusive)
COc1ccc2nc(SCC(=O)Nc3ccc4c(c3)OCCO4)[nH]c2c1,AC50,Cytochrome P450 3A4,6.31 µM (inconclusive)
CN1Cc2cccc3c2C(Cc2ccccc2S3)C1 (stereo not given),EC50,[1],0.451 µM (active)
same,EC50,[2],> 30 µM (not active)
Cn1c(=O)c(Oc2ccc(F)cc2)c(O)c2ccccc21,IC50,cells,1.87 µM (active)
c1nc(NCCN2CCOCC2)c2cc(-c3ccoc3)ccc2n1,AC50,Cytochrome P450 3A4,15.8 µM (inconclusive)
COC(=O)C1CC(=O)N(c2ccc(OCc3ccccc3Cl)cc2)C1 (stereo not given),IC50,cells,2.2 µM (active)
Cc1c(Cl)cccc1NC(=O)C(=O)NNC(=O)c1ccccc1F,IC50,cells,15 µM (active)
CC/C=C\CC[C@H](OC(=O)c1ccc(Br)cc1)C1=CCCCC1=O,AC50,Cytochrome P450 2C9,3.16 µM (inconclusive)
same,AC50,Cytochrome P450 3A4,3.98 µM (inconclusive)
COc1cc(-c2nc(-c3cc([N+](=O)[O-])ccc3C)c(-c3ccccc3)[nH]2)cc(OC)c1OC,EC50,[1],0.561 µM (active)
same,EC50,[2],> 60 µM (not active)
Cc1ccc(CN2CCN(/N=C/c3ccc(Cl)c([N+](=O)[O-])c3)CC2)cc1,EC50,[1],1.31 µM (active)
same,EC50,[2],> 60 µM (not active)
Cc1nnc2ccc(-c3cccc(C(F)(F)F)c3)nn12 [CI-218872],AC50,Cytochrome P450 3A4,31.6 µM (inconclusive)
CCOc1cc(CNCCc2ccc(S(N)(=O)=O)cc2)cc(Cl)c1OCc1ccccc1,EC50,[1],0.373 µM (active)
same,EC50,[2],> 60 µM (not active)
C=CCCCCCCCCC(=O)Nc1cnc(O)nc1O,AC50,Cytochrome P450 3A4,10 µM (inconclusive)
CC(=O)c1sc2nc(-c3ccccc3)cc(C)c2c1N,EC50,[1],0.638 µM (active)
same,EC50,[2],> 60 µM (not active)
COC(=O)[C@@H]1CC[C@H](C)[C@@H](c2ccc(C)cc2)N1C(=O)c1ccc(/C=N\O[C@@H]2O[C@H](COC(C)=O)[C@H](OC(C)=O)[C@H](OC(C)=O)[C@H]2OC(C)=O)cc1,AC50,Cytochrome P450 2C9,1.58 µM (inconclusive)
O=c1c2ccccc2nc(SCc2ccccc2Cl)n1Cc1ccccc1,AC50,Cytochrome P450 3A4,15.8 µM (inconclusive)
O=S(=O)(c1ccccc1)N1CCC[C@@]2(CCN(Cc3nccs3)C2)C1,AC50,Cytochrome P450 2C9,31.6 µM (inconclusive)
Cc1nc2cnc(Oc3ccccc3)nc2n(CCc2ccccc2)c1=O,AC50,Cytochrome P450 3A4,20 µM (inconclusive)
same,AC50,Cytochrome P450 1A2,3.16 µM (inconclusive)
Cc1ccc(NC(=O)CO/N=C/c2ccc(N(C)C)cc2)cc1,IC50,cells,> 50 µM (active)
CCOC(=O)c1cc(CC)sc1NC(=O)C(c1ccccc1)c1ccccc1,AC50,Cytochrome P450 3A4,11.2 µM (inconclusive)
CN1CCN(CC(O)c2ccccc2)CC1 (stereo not given),EC50,[1],0.934 µM (active)
same,EC50,[2],31.2 µM (active)
CC1CCN(c2cc(N3CCC(C)CC3)c([N+](=O)[O-])cc2/C=C(\C#N)c2nn(-c3ccccc3)c(N)c2C#N)CC1,AC50,Cytochrome P450 3A4,3.98 µM (inconclusive)
COC[C@H]1OC(=O)c2coc3c2[C@@]1(C)C1=C(C3=O)[C@H]2CCC(=O)[C@@]2(C)C[C@H]1OC(C)=O,AC50,Cytochrome P450 3A4,7.94 µM (inconclusive)
same,AC50,Cytochrome P450 1A2,31.6 µM (inconclusive)
CN1CCC(NC(=O)Nc2ccc(Br)cc2)CC1,EC50,[1],0.188 µM (active)
same,EC50,[2],> 60 µM (not active)
Cc1cc(C)n(-c2cc(N3CCN(C(=O)c4ccc(C(C)(C)C)cc4)CC3)ccc2[N+](=O)[O-])n1,AC50,Cytochrome P450 3A4,35.5 µM (inconclusive)
COc1cccc(NC(=S)N(Cc2ccc(C)cc2)Cc2ccccn2)c1,EC50,[1],0.764 µM (active)
same,EC50,[2],> 60 µM (not active)
Cc1ccc(C2=Nc3ccccc3S[C@@H](c3cccc([N+](=O)[O-])c3)C2)cc1,AC50,Cytochrome P450 1A2,2 µM (inconclusive)
Cc1ccc(C(C)C)cc1OCC(=O)Nc1ccc(N2CCCCC2)cc1,EC50,[1],2.03 µM (active)
same,EC50,[2],> 16 µM (not active)
Cn1c(=O)c(-c2cc(F)cc(F)c2)nc2cnc(N3CCOCC3)nc21,AC50,Cytochrome P450 1A2,5.01 µM (inconclusive)
CCN1CCc2c(sc(NC(=O)c3ccc(S(=O)(=O)N(CC)c4ccccc4)cc3)c2C(N)=O)C1,EC50,[3],4.85 µM (active)
O=C(N/N=C1/C[C@@H](O)[C@@H](O)[C@@H]2[C@H]3C(=O)N(c4ccc(F)cc4F)C(=O)[C@@H]3CC[C@@H]12)OCc1ccccc1,AC50,Cytochrome P450 3A4,3.98 µM (inconclusive)
CCCCCCc1cc2cc(C(=O)Nc3ccccc3OC)c(=O)oc2cc1O,EC50,[3],1.97 µM (active)
c1ccc(C2CC2)c(OCC2=NCCN2)c1 [CIRAZOLINE],AC50,Cytochrome P450 1A2,15.8 µM (inconclusive)
O=C1CCCN1CC(CN1CCOCC1)Sc1nnnn1-c1ccccc1 (stereo not given),AC50,Cytochrome P450 2C9,6.31 µM (inconclusive)
C[C@@H]1C[C@H]2[C@H]3C[C@@H](F)C4=CC(=O)C=C[C@]4(C)[C@@]3(Cl)[C@@H](O)C[C@@]2(C)[C@@H]1C(=O)COC(=O)C(C)(C)C,AC50,Cytochrome P450 3A4,0.398 µM (inconclusive)
Cc1ccc(CSc2nnc([C@@H]3CCCN3)o2)cc1,AC50,Cytochrome P450 2C9,10 µM (inconclusive)
same,AC50,Cytochrome P450 3A4,3.55 µM (inconclusive)
CO[C@@H]1COC(=O)C/C=C\[C@H](C)COC(=O)[C@H](Cc2ccccc2)NC(=O)C/C=C\[C@H]1C,AC50,Cytochrome P450 3A4,6.31 µM (inconclusive)
COc1ccccc1CNc1ncnc2ccc(-c3ccc(N(C)C)cc3)cc12,AC50,Cytochrome P450 2C9,0.631 µM (inconclusive)
COCCn1c(=O)c(-c2ccccc2)nc2cnc(Oc3cccc(Cl)c3)nc21,AC50,Cytochrome P450 3A4,20 µM (inconclusive)
CCOC(=O)c1c(NC(=O)Cn2cnc([N+](=O)[O-])n2)sc(C)c1C,EC50,[1],0.191 µM (active)
same,EC50,[2],> 30 µM (not active)
CC(C)=CC(=O)OCC(=O)Nc1ncc(Cl)c(C)c1Cl,AC50,Cytochrome P450 2C9,0.0631 µM (inconclusive)
Cc1nc2cnc(N(C)C)nc2n(C)c1=O,AC50,Cytochrome P450 3A4,15.8 µM (inconclusive)
